pIC50: −log10 of the molar value.
Columns and labels:
human endothelial cells = assay: Cladribine example, PDGF-stimulated cell proliferation, endothelial cells; format: cell-based; settings: for % of PDGF-stimulated increase in cell count: EC, day six, mean of triplicate
Protocol: (§1) To assess the ability of cladribine to prevent cell proliferation, human smooth muscle or endothelial cells (Clonetics, Walkersville, Md.) were seeded at a density of 2000 cells/cm^2 (approximately 3600 cells/well) into each well of 12-well plates and cultured with 1.5 ml of growth medium containing five percent fetal calf serum (FCS). After twenty-four hours, the growth medium was changed and fresh medium containing 10 ng/ml platelet-derived growth factor AB (PDGF AB; LIFE Technologies), as well as various concentrations of cladribine (0.001-10,000 nM) were added with triplicate wells. Medium was replaced with fresh cladribine-containing medium after three days. On day six, cells were detached by trypsinization to yield a cell suspension, lightly centrifuged to pellet and then counted manually using a Neubauer hemocytometer system. Cell viability was assessed by trypan blue exclusion.

[1] = in vivo release kinetics of cladribine from polymeric stent coatings; parameters: species or system Yorkshire pig; settings: Bx Velocity stents
Description: FIG. 61 is a graphical representation of the in vivo release kinetics of cladribine from a polymeric coating on BxVelocity® stents, available from Cordis Corporation, implanted in a Yorkshire pig. The basecoat comprises an 85/15 ratio of PVDF and HFP and cladribine for a total combined weight of one thousand eight hundred micrograms (cladribine comprising thirty percent of the total weight). […]
(§2) The basecoat is applied to Bx Velocity® stents and implanted into Yorkshire pigs.
as §2

[2] = test system: human smooth muscle cells; assay: Cladribine example, PDGF-stimulated cell proliferation, smooth muscle cells; format: cell-based; settings: for % of PDGF-stimulated increase in cell count: SMC, day six, mean of triplicate
Protocol: as §1

[3] = test system: human coronary artery smooth muscle cells; assay: anti-proliferative activity in non-synchronized cultured cells stimulated with two percent fetal bovine serum; format: cell-based
Description: The multiple curves represent various concentrations of mycophenolic acid ranging from zero to one thousand nanomolar concentrations.
FIG. 58 illustrates, in graphical format, the anti-proliferative activity of cladribine in non-synchronized cultured human coronary artery smooth muscle cells stimulated with two percent fetal bovine serum.
The multiple curves represent various concentrations of cladribine ranging from zero to nine hundred nanomolar concentrations.

cell viability = cell viability assay; format: cell-based
Description: (§3) The multiple curves represent various concentrations of topotecan ranging from zero to three hundred nanomolar concentrations.
(§4) The multiple curves represent various concentrations of etoposide ranging from zero to eight hundred nanomolar concentrations.

[4] = test system: human coronary artery smooth muscle cells; assay: anti-proliferative activity in synchronized cultured cells stimulated with two percent fetal bovine serum; format: cell-based
Description: as §3, §4
The multiple curves represent various concentrations of Panzem® ranging from zero to 100 micromolar concentrations.

tumor cell lines = tumor cell lines (Woo et al., 2002); cited from earlier work
[5] = test system: human coronary artery smooth muscle cell proliferation; assay: in vitro cell culture study, coronary artery smooth muscle cell proliferation; format: cell-based
Description: FIG. 51 is a graph of the inhibition of coronary artery smooth muscle cells by trichostatin A in a cell culture study.

[6] = in vivo release kinetics from rapamycin, mycophenolic acid and polymer coating, porcine pharmacokinetics studies; settings: 180 micrograms each drug, with or without BMA topcoat

## Nc1nc(Cl)nc2c1ncn2[C@H]1C[C@H](O)[C@@H](CO)O1 [Cladribine, 2-chlorodeoxyadenosine]
Human endothelial cells; cladribine 0.001 nM
  % of PDGF-stimulated increase in cell count: 100%
Human endothelial cells; cladribine 0.01 nM
  % of PDGF-stimulated increase in cell count: 90%
Human endothelial cells; cladribine 0.1 nM
  % of PDGF-stimulated increase in cell count: 79%
Human endothelial cells; cladribine 1 nM
  % of PDGF-stimulated increase in cell count: 75%
Human endothelial cells; cladribine 10 nM
  % of PDGF-stimulated increase in cell count: 59%
Human endothelial cells; cladribine 100 nM
  % of PDGF-stimulated increase in cell count: 57%
Human endothelial cells; cladribine 1000 nM
  % of PDGF-stimulated increase in cell count: 35%
Human endothelial cells; cladribine 10,000 nM
  % of PDGF-stimulated increase in cell count: 10%
Human endothelial cells; Homo sapiens, Endothelial cell, PDGF AB stimulated, reduction to 50 percent of vehicle-treated cell count, read-out: IC50 for inhibition of endothelial cell growth
  pIC50: 7.40
[1]; Yorkshire pig, 1800 microgram basecoat with thirty percent cladribine, 300 microgram topcoat
  elution from PVDF/HFP (85/15) coating: levels off significantly
[1]; Yorkshire pigs, 200 microgram BMA topcoat
  elution from EVA/BMA basecoat compared with rapamycin: elutes more rapidly than rapamycin
[2]; Homo sapiens, PDGF AB stimulated, reduction to 50 percent of vehicle-treated cell count, read-out: IC50 for inhibition of smooth muscle cell growth
  pIC50: 7.64
[2]; cladribine 0.01 nM
  % of PDGF-stimulated increase in cell count: 104%
[2]; cladribine 0.1 nM
  % of PDGF-stimulated increase in cell count: 86%
[2]; cladribine 1 nM
  % of PDGF-stimulated increase in cell count: 85%
[2]; cladribine 10 nM
  % of PDGF-stimulated increase in cell count: 54%
[2]; cladribine 100 nM
  % of PDGF-stimulated increase in cell count: 58%
[2]; cladribine 1000 nM
  % of PDGF-stimulated increase in cell count: 12%
[2]; cladribine 10,000 nM
  % of PDGF-stimulated increase in cell count: −4%
[2]; from the IC50 values
  potency on smooth muscle cells relative to endothelial cells: approximately twice as potent
[3]; cladribine zero to nine hundred nanomolar added to rapamycin, non-synchronized cells
  effect of addition on anti-proliferative activity of rapamycin: increases the percent inhibition of rapamycin alone
[3]; non-synchronized cells, two percent fetal bovine serum
  inhibition of human coronary artery smooth muscle cell proliferation: completely inhibits
[3]; non-synchronized human coronary artery smooth muscle cells, two percent fetal bovine serum
  pIC50: ~6.62

## CC[C@@]1(O)C(=O)OCc2c1cc1n(c2=O)Cc2cc3c(CN(C)C)c(O)ccc3nc2-1 [Topotecan, topotecan]
Cell viability; at concentrations up to one micromolar
  cytotoxicity: non-cytotoxic
[4]; topotecan zero to three hundred nanomolar added to rapamycin
  effect of addition on anti-proliferative activity of rapamycin: increases the percent inhibition of rapamycin alone

## COc1cc([C@@H]2c3cc4c(cc3[C@@H](O[C@@H]3O[C@@H]5CO[C@@H](C)O[C@H]5[C@H](O)[C@H]3O)[C@H]3COC(=O)[C@H]23)OCO4)cc(OC)c1O [Etoposide, etoposide]
Cell viability; at concentrations up to ten micromolar
  cytotoxicity: non-cytotoxic
[4]; etoposide zero to eight hundred nanomolar added to rapamycin
  effect of addition on anti-proliferative activity of rapamycin: increases the percent inhibition of rapamycin alone

## COc1cc2c(cc1O)CC[C@@H]1[C@@H]2CC[C@]2(C)[C@@H](O)CC[C@@H]12 [Panzem®, 2-methoxyestradiol]
[4]; Panzem zero to 100 micromolar added to rapamycin
  effect of addition on anti-proliferative activity of rapamycin: increases the percent of inhibition of rapamycin alone
[4]; two percent fetal bovine serum
  anti-proliferative activity alone: extremely effective inhibitor

## CC(/C=C/C(=O)NO)=C\[C@@H](C)C(=O)c1ccc(N(C)C)cc1 [trichostatin A]
Tumor cell lines
  anti-proliferative IC50: low nM range
[5]; human coronary artery smooth muscle cells, cell culture, read-out: anti-proliferative IC50
  pIC50: ~8.22
[5]; in vitro cell culture
  inhibition of human coronary artery smooth muscle cell proliferation: completely inhibit

## COc1c(C)c2c(c(O)c1C/C=C(\C)CCC(=O)O)C(=O)OC2 [mycophenolic acid]
[3]; mycophenolic acid zero to one thousand nanomolar added to rapamycin, non-synchronized cells
  effect of addition on anti-proliferative activity of rapamycin: potentiates the anti-proliferative activity of rapamycin
[6]
  release from EVA/BMA basecoat compared with rapamycin: elutes more completely over a shorter duration than the rapamycin
